Test system: Utrophin A promoter linked to a luciferase reporter gene
Test: Luciferase reporter assay (murine H2K cells)
Type: cell-based
Details: for activity at 10 µM: Mus musculus, H2K mdx, read-out: Activity
Method in brief: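 Immortalized mdx mouse H2K myoblasts stably carrying a ~5 kb utrophin A promoter–luciferase construct, kept at 33° C, 10% CO2. After 24 hrs plating, compound added at 10 μM final for 48 hrs; luciferase light output read after in-situ lysis.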

[1] = luciferase level relative to control, H2K/mdx/Utro A reporter cells, compound 10 μM final concentration
[2] = luciferase reporter assay in murine H2K cells, classified relative to control

| Compound | activity at 10 µM [1] [%] | Activity [2] | other results |
| --- | --- | --- | --- |
| CC(=O)Nc1ccc(-c2ccc3oc(-c4ccc(Cl)cc4)nc3c2)cc1 [Example 252, N-(4-(2-(4-chlorophenyl)benzo[d]oxazol-5-yl)phenyl)acetamide] | 301 to 400 | – | – |
| O=C(Nc1ccc2oc(-c3ccc(F)cc3)nc2c1)c1ccco1 [Example 2, N-(2-(4-fluorophenyl)benzo[d]oxazol-5-yl)furan-2-carboxamide] | < 200 | – | – |
| Cc1ccc(-c2nc3cc(NC(=O)c4cccs4)ccc3o2)cc1 [Example 120, N-(2-p-tolylbenzo[d]oxazol-5-yl)thiophene-2-carboxamide] | 201 to 300 | – | – |
| O=C(Nc1ccc2oc(-c3ccccc3)nc2c1)c1cccnc1 [Example 6, N-(2-phenylbenzo[d]oxazol-5-yl)nicotinamide] | < 200 | – | – |
| Cc1cc2nc(-c3cccc(NC(=O)c4ccco4)c3)oc2cc1C [Example 623] | – | ++++ (Above 401% relative to control) | – |
| O=[N+]([O-])c1ccc2oc(-c3ccco3)nc2c1 [Example 366, 2-(furan-2-yl)-5-nitrobenzo[d]oxazole] | < 200 | – | – |
| CCCCNc1ccc2oc(-c3ccc(C)cc3)nc2c1 [Example 185, N-butyl-2-p-tolylbenzo[d]oxazol-5-amine] | 301 to 400 | – | – |
| CC(C)C(=O)Nc1ccc2oc(-c3cc(Cl)cc(Cl)c3)nc2c1 [Example 271, N-(2-(3,5-dichlorophenyl)benzo[d]oxazol-5-yl)isobutyramide] | 201 to 300 | – | – |
| CC(C)C(=O)Nc1ccc2oc(-c3ccc4c(c3)OCO4)nc2c1 [Example 300, N-(2-(benzo[d][1,3]dioxol-5-yl)benzo[d]oxazol-5-yl)isobutyramide] | 301 to 400 | – | – |
| CCc1nc2cc(S(=O)(=O)CC)ccc2o1 [Example 572] | – | + (Up to 200% relative to control) | – |
| CC(C)NC(=O)c1ccc2oc(-c3ccc(Cl)cc3)nc2c1 [Example 263, 2-(4-chlorophenyl)-N-isopropylbenzo[d]oxazole-5-carboxamide] | 301 to 400 | – | – |
| Cc1nn(-c2nc3ccccc3[nH]2)c(N)c1-c1ccccc1 [Example 659] | – | +++ (Between 301% and 400% relative to control) | – |
| COc1ccc(-c2nc3ccccc3[nH]2)cc1 [Example 470] | – | ++ (Between 201% and 300% relative to control) | – |
| COc1ccc(-c2nc3cc([N+](=O)[O-])ccc3[nH]2)cc1OC [Example 520] | – | + (Up to 200% relative to control) | – |
| OCc1cn(-c2ccccc2)nc1-c1cc2ccccc2o1 [Example 674] | – | ++ (Between 201% and 300% relative to control) | – |
| CCS(=O)(=O)c1ccc2ocnc2c1 [Example 573] | – | + (Up to 200% relative to control) | – |
| Nc1ccc2nc(-c3ccccc3)oc2c1 [Example 155, 2-phenylbenzo[d]oxazol-6-amine] | 301 to 400 | – | – |
| Nc1ccc2oc(-c3ccccc3)nc2c1 [Example 14, 2-phenylbenzo[d]oxazol-5-amine] | 301 to 400 | – | – |
| CCCC(=O)Nc1ccc2oc(-c3cccnc3)nc2c1 [Example 54, N-(2-(pyridin-3-yl)benzo[d]oxazol-5-yl)butyramide] | < 200 | – | – |
| CCCCC(=O)Nc1ccc2oc(-c3ccc(Cl)cc3)nc2c1 [Example 100, N-(2-(4-chlorophenyl)benzo[d]oxazol-5-yl)pentanamide] | 201 to 300 | – | – |

| Compound | activity at 10 µM [1] [%] | Activity [2] | other results |
| --- | --- | --- | --- |
| O=[N+]([O-])c1ccc2nc(-c3ccccc3)[nH]c2c1 [Example 604] | – | +++ (Between 301% and 400% relative to control) | – |
| Clc1ccc(-c2nc3cc4c(cc3o2)OCO4)cc1Cl [Example 361, 2-(3,4-chlorophenyl)-5,6-methylenedioxybenzoxazole] | – | – | Activity [1]: + (Up to 200% relative to control) |
| O=[N+]([O-])c1ccc2nc(-c3ccc(Cl)cc3)oc2c1 [Example 191, 2-(4-chlorophenyl)-6-nitrobenzo[d]oxazole] | 201 to 300 | – | – |
| CC(C)C(=O)Nc1ccc2oc(-c3cccc4ccccc34)nc2c1 [Example 410, N-(2-(naphthalen-1-yl)benzo[d]oxazol-5-yl)isobutyramide] | < 200 | – | – |
| CCS(=O)(=O)c1ccc2oc(-c3ccc(C)o3)nc2c1 [Example 441, 5-(ethylsulfonyl)-2-(5-methylfuran-2-yl)benzo[d]oxazole] | 301 to 400 | – | – |
| Cc1ccc(NC(=O)C(=O)c2c[nH]c3ccccc23)c(Br)c1 [Example 663] | – | +++ (Between 301% and 400% relative to control) | – |
| CC(C)C(=O)Nc1ccc2oc(C(C)c3ccccc3)nc2c1 (centres unmarked) [Example 309, N-(2-(1-phenylethyl)benzo[d]oxazol-5-yl)isobutyramide] | < 200 | – | – |
| CCOCCC(=O)Nc1ccc(-c2nc3ccc(C)cc3s2)cc1 [Example 660] | – | +++ (Between 301% and 400% relative to control) | – |
| CC(C)C(=S)Nc1ccc2oc(-c3ccc(Cl)cc3)nc2c1 [Example 275, N-(2-(4-chlorophenyl)benzo[d]oxazol-5-yl)-2-methylpropanethioamide] | 201 to 300 | – | – |
| Cc1ccc(-c2nc3ccccc3[nH]2)cc1N [Example 620] | – | ++++ (Above 401% relative to control) | – |
| CCN(CC)c1ccc(-c2nc3cc(NC(=O)c4cccs4)ccc3o2)cc1 [Example 79, N-(2-(4-(diethylamino)phenyl)benzo[d]oxazol-5-yl)thiophene-2-carboxamide] | < 200 | – | – |
| COc1ccc(-c2nc3ccc([N+](=O)[O-])cc3o2)cc1 [Example 584] | – | +++ (Between 301% and 400% relative to control) | – |
| CC(C)(C)c1ccc2oc(-c3ccc(Cl)cc3)nc2c1 [Example 321, 5-tert-butyl-2-(4-chlorophenyl)benzo[d]oxazole] | > 401 | – | – |
| CC(=O)Nc1ccc(-c2nc3cc(NC(C)=O)ccc3o2)cc1 [Example 365, N-(4-(5-acetamidobenzo[d]oxazol-2-yl)phenyl)acetamide] | < 200 | – | – |
| Nc1c(C(=O)Nc2ccccc2F)sc2nc3c(cc12)CCC3 [Example 673] | – | ++ (Between 201% and 300% relative to control) | – |
| CCCC(=O)Nc1ccc2oc(-c3ccc(OC)cc3)nc2c1 [Example 137, N-(2-(4-methoxyphenyl)benzo[d]oxazol-5-yl)butyramide] | 201 to 300 | – | – |
| CC(C)C(=O)Nc1ccc2oc(-c3ccc(Cl)cc3)cc2c1 [Example 414, 2-(4′-chlorophenyl)-5-isobutyramido-benzofuran] | < 200 | – | – |
| COc1ccc(-c2nc3ccccc3o2)cc1 [Example 583] | – | +++ (Between 301% and 400% relative to control) | – |
| O=C(Nc1ccc2oc(-c3ccccc3)nc2c1)c1ccncc1 [Example 22, N-(2-phenylbenzo[d]oxazol-5-yl)isonicotinamide] | < 200 | – | – |
| Nc1cccc(-c2ccc3oc(-c4ccc(Cl)cc4)nc3c2)c1 [Example 328, 3-(2-(4-chlorophenyl)benzo[d]oxazol-5-yl)aniline] | > 401 | – | – |

| Compound | activity at 10 µM [1] [%] | Activity [2] | other results |
| --- | --- | --- | --- |
| Cc1cccc(-c2nc3cc([N+](=O)[O-])ccc3o2)c1 [Example 533] | – | ++ (Between 201% and 300% relative to control) | – |
| CCC(=O)Nc1ccc2oc(-c3ccc(C)cc3)nc2c1 [Example 115, N-(2-p-tolylbenzo[d]oxazol-5-yl)propionamide] | > 401 | – | – |
| CCN(CC)c1ccc(-c2nc3cc(C(=O)O)ccc3o2)cc1 [Example 152, 2-(4-(diethylamino)phenyl)benzo[d]oxazole-5-carboxylic acid] | < 200 | – | – |
| COc1ccc2cc(-c3nc4cc(NC(=O)C(C)C)ccc4o3)ccc2c1 [Example 412, N-(2-(6-methoxynaphthalen-2-yl)benzo[d]oxazol-5-yl)isobutyramide] | < 200 | – | – |
| Cl.Cl.Nc1ccc2[nH]c(-c3ccco3)nc2c1 [Example 510] | – | + (Up to 200% relative to control) | – |
| O=[N+]([O-])c1ccc2oc(-c3ccccc3O)nc2c1 [Example 21, 2-(5-nitrobenzo[d]oxazol-2-yl)phenol] | < 200 | – | – |
| Cc1cc2nc(-c3ccc(N)cc3O)oc2cc1C [Example 610] | – | ++++ (Above 401% relative to control) | – |
| c1ccc(OCc2nc3ccccc3s2)cc1 [Example 633] | – | +++ (Between 301% and 400% relative to control) | – |
| CCS(=O)(=O)c1ccc2oc(-c3cccc4ccccc34)nc2c1 [Example 427, 5-(ethylsulfonyl)-2-(naphthalen-1-yl)benzo[d]oxazole] | < 200 | – | – |
| Nc1ccc(-c2nc3cc(N)ccc3o2)c(O)c1 [Example 82, 5-amino-2-(5-aminobenzo[d]oxazol-2-yl)phenol] | 201 to 300 | – | – |
| c1ccc2sc(-c3ccc4c(c3)OCO4)nc2c1 [Example 608] | – | ++++ (Above 401% relative to control) | – |
| CNC(=O)c1ccc2oc(-c3ccc(Cl)cc3)nc2c1 [Example 279, 2-(4-chlorophenyl)-N-methylbenzo[d]oxazole-5-carboxamide] | 301 to 400 | – | – |
| CC(C)CN(C)c1ccc2oc(-c3ccc(Cl)cc3)nc2c1 [Example 322, 2-(4-chlorophenyl)-N-isobutyl-N-methylbenzo[d]oxazol-5-amine] | < 200 | – | – |
| Cc1nc2ccc(NC(=O)Nc3ccccc3)cc2o1 [Example 466] | – | + (Up to 200% relative to control) | – |
| O=C(Nc1ccc2oc(-c3ccc(C(F)(F)F)cc3)nc2c1)c1ccco1 [Example 128, N-(2-(4-(trifluoromethyl)phenyl)benzo[d]oxazol-5-yl)furan-2-carboxamide] | < 200 | – | – |
| Cc1ccnc(Nc2nc3ccccc3o2)n1 [Example 682] | – | ++ (Between 201% and 300% relative to control) | – |
| Nc1ccc(-c2nc3cc(Cl)c(Cl)cc3o2)c(O)c1 [Example 428, 5-amino-2-(5,6-dichlorobenzo[d]oxazol-2-yl)phenol] | 301 to 400 | – | – |
| CC(C)C(=O)Nc1ccc2oc(-c3ccco3)nc2c1 [Example 419, N-(2-(furan-2-yl)benzo[d]oxazol-5-yl)isobutyramide] | > 401 | – | – |
| O=C(Nc1ccc2oc(-c3ccc(Cl)cc3)nc2c1)c1cccs1 [Example 103, N-(2-(4-chlorophenyl)benzo[d]oxazol-5-yl)thiophene-2-carboxamide] | < 200 | – | – |
